How the values were obtained:
[1] = tested on: IL-6 secreted by human pulmonary artery endothelial cells (HPAEC); assay: In vitro IL-6 assay: TNF-alpha-stimulated IL-6 secretion by HPAEC, ELISA; assay type: cell-based; details: Endothelial cell, 10 microM compound, 20 hrs preincubation, then 2 ng/ml TNF-alpha for 4 hrs
Protocol: (§1) In Vitro IL-6 and IL-8 Assays
(§2) Compounds at dosing concentrations (with 0.2% DMSO vehicle) were incubated in EGM2MV cell media at 37° C. for overnight, added to 96-well plates seeded with confluent human pulmonary artery endothelial cells (HPAEC) for 20 hrs at 37° C., and then replaced with fresh dosing media containing 2 ng/ml tumor necrosis factor alpha for additional 4 hrs at 37° C. Afterwards, media was removed and used in ELISA assay to quantify the amount of IL-6 and IL-8 secreted by the cells using R&D Systems Duoset ELISA kits.

[2] = tested on: Balb/CJ mice, ovalbumin-sensitized and challenged; assay: Mouse model of asthma: methacholine-induced airway reactivity (Penh) in ovalbumin-sensitized mice; assay type: in vivo; details: po, 768 h, 50 mg/kg p.o., days 26-32, % inhibition of the PenH vs McH dose AUC compared with vehicle control, day 32, read-out: Reduction of Penh AUC at 50 mg/kg p.o.
Protocol: Protocol for Testing Compounds in a Mouse Model of Asthma
Male 5-6 week old Balb/CJ mice were obtained from Jackson Laboratories (Bar Harbor, Me.). All experimental animals were used in accordance to Institutional Animal Care and Use Committee of AtheroGenics, Inc. Mice were sensitized by administering an intraperitoneal injection of 20 μg of ovalbumin (Calbiochem, La Jolla, Calif.) adsorbed in 2 mg of alum (Imject Alum; Pierce, Rockford, Ill.) on day 0 and 14. A group of mice received saline and served as negative control animals. The mice were challenged by aerosol exposure to ovalbumin (1% [wt/vol]) for 25 minutes on 3 consecutive days (days 28, 29, and 30) in a plexiglas exposure chamber coupled to an Aeroneb nebulizer (Buxco Electronics, Wilmington, N.C.). Experimental compounds were dissolved in Glycofurol/PEG 300/Tween (35%/55%/10%) (Sigma-aldrich; Milwaukee, Wis.). Animals were dosed orally with either test compound or vehicle (6 ml/kg dosing volume) on days 26-32 of study. Compound or vehicle was administered 2 hour before the aerosol challenge on days 28, 29, and 30 and 1 hour before airway reactivity measurement on day 32.
Methacholine-induced airway reactivity was assessed on day 32. Methacholine was administered in increasing concentrations ([…], 1.5, 3, 6, 12, 25, and 50 mg/ml) to unrestrained mice. Increases in airway resistance to Methacholine were determined as enhanced pause, (Penh) values, during and after the exposure (6-minute total analysis time). Mice were then humanely euthanized with an overdose of ketamine/xylazine and plasma samples collected for determination of drug levels. The data is presented as the % inhibition of the PenH vs McH dose AUC compared with the vehicle control.
Data analysis was conducting using the software package, JMP (SAS Institute Inc; Cary, N.C.). The Dunnett's multiple comparison test was used to compare treatment group means to the vehicle control group. P values of less than 0.05 were considered statistically significant. The data (Table 1) are presented as the % inhibition of the PenH vs McH dose AUC compared with the vehicle control.

[3] = tested on: IL-8 secreted by human pulmonary artery endothelial cells (HPAEC); assay: In vitro IL-8 assay: TNF-alpha-stimulated IL-8 secretion by HPAEC, ELISA; assay type: cell-based; details: Endothelial cell, 10 microM compound, 20 hrs preincubation, then 2 ng/ml TNF-alpha for 4 hrs
Protocol: as §1, §2

`Cc1cc2c(cc1O)C(C)(C)CC1(CC(C)(C)c3cc(OCCCCO)c(C)cc3O1)O2` (racemic) showed a melting point of 235 to 236 °C.

In the case of `C=CCOc1cc2c(cc1C)OC1(CC(C)(C)c3cc(O)c(C)cc3O1)CC2(C)C` (racemic), the melting point is reported as 143 to 144 °C.

For `Cc1cc2c(cc1O)C(C)(C)CC1(CC(C)(C)c3cc(OCCO)c(C)cc3O1)O2` (racemic) [Example 1, (±)-6′-Hydroxy-6-(2-hydroxyethoxy)-4,4,4′,4′,7,7′-hexamethyl-2,2′-spirobichroman], the melting point was 186 to 188 °C, the inhibition at 10 µM [1] was 20% and the inhibition in vivo at 50 mg/kg [2] was < 20%. It also gave an inhibition at 10 µM [3] of 0%.

With `Cc1cc(C)n(CCOc2cc3c(cc2C)OC2(CC(C)(C)c4cc(O)c(C)cc4O2)CC3(C)C)n1` (racemic) [Example 2, (±)-6′-Hydroxy-6-[2-(3,5-dimethyl-1H-pyrazol-1-yl)ethoxy]-4,4,4′,4′,7,7′-hexamethyl-2,2′-spirobichroman] the inhibition at 10 µM [1] was 9%, the inhibition in vivo at 50 mg/kg [2] was < 20% and the inhibition at 10 µM [3] was 12%.

`Cc1cc2c(cc1O)C(C)(C)CC1(CC(C)(C)c3cc(OCCCO)c(C)cc3O1)O2` (racemic) [Example 3, (±)-6′-Hydroxy-6-(3-hydroxypropoxy)-4,4,4′,4′,7,7′-hexamethyl-2,2′-spirobichroman] gave a melting point of 175 to 177 °C, an inhibition at 10 µM [1] of 53% and an inhibition in vivo at 50 mg/kg [2] of 20 to 40%. The inhibition at 10 µM [3] was 13%.

In the case of `Cc1cc2c(cc1O)C(C)(C)CC1(CC(C)(C)c3cc(OCCCn4cccn4)c(C)cc3O1)O2` (racemic) [Example 4, (±)-6′-Hydroxy-6-[3-(1H-pyrazol-1-yl)propoxy]-4,4,4′,4′,7,7′-hexamethyl-2,2′-spirobichroman], the inhibition at 10 µM [1] is reported as 44%, the inhibition in vivo at 50 mg/kg [2] is reported as < 20% and the inhibition at 10 µM [3] is reported as 0%.

`Cc1cc2c(cc1O)C(C)(C)CC1(CC(C)(C)c3cc(OC[C@@H](O)CO)c(C)cc3O1)O2` (mixture of isomers) [Example 5, (±)-6′-Hydroxy-6-[2(S),3-dihydroxypropoxy]-4,4,4′,4′,7,7′-hexamethyl-2,2′-spirobichroman] gave a melting point of 218 to 220 °C, an inhibition at 10 µM [1] of 3% and an inhibition in vivo at 50 mg/kg [2] of 20 to 40%. It also gave an inhibition at 10 µM [3] of 11%.

For `Cc1cc2c(cc1O)C(C)(C)CC1(CC(C)(C)c3cc(OCCCn4ccnc4)c(C)cc3O1)O2` (racemic) [Example 6, (±)-6′-Hydroxy-6-[3-(1H-imidazol-1-yl)propoxy]-4,4,4′,4′,7,7′-hexamethyl-2,2′-spirobichroman], the melting point was 209 to 211 °C, the inhibition at 10 µM [1] was 24% and the inhibition at 10 µM [3] was 5%.

With `Cc1cc2c(cc1O)C(C)(C)CC1(CC(C)(C)c3cc(OC(C)(C)C(=O)O)c(C)cc3O1)O2` (racemic) [Example 8, (±)-(6′-Hydroxy-4,4,4′,4′,7,7′-hexamethyl-2,2′-spirobichroman-6-yloxy)-dimethylacetic acid] the inhibition at 10 µM [1] was 42%, the inhibition in vivo at 50 mg/kg [2] was > 40% and the inhibition at 10 µM [3] was 25%.

For `Cc1cc2c(cc1O)C(C)(C)C[C@]1(CC(C)(C)c3cc(OC(C)(C)C(=O)O)c(C)cc3O1)O2` (racemic) [Example 9, (±)-(R)-(6′-Hydroxy-4,4,4′,4′,7,7′-hexamethyl-2,2′-spirobichroman-6-yloxy)-dimethylacetic acid], the inhibition in vivo at 50 mg/kg [2] was > 40%.

In the case of `Cc1cc2c(cc1O)C(C)(C)CC1(CC(C)(C)c3cc(OC(C)(C)CO)c(C)cc3O1)O2` (racemic) [Example 11, (±)-6-(2-Hydroxy-1,1-dimethyl-ethoxy)-6′-hydroxy-4,4,4′,4′,7,7′-hexamethyl-2,2′-spirobichroman], the melting point is reported as 188 to 189 °C and the inhibition in vivo at 50 mg/kg [2] is reported as < 20%.

With `Cc1cc2c(cc1O)C(C)(C)CC1(CC(C)(C)c3cc(OCC(N)=O)c(C)cc3O1)O2` (racemic) [Example 14, (±)-(6′-Hydroxy-4,4,4′,4′,7,7′-hexamethyl-2,2′-spirobichroman-6-yloxy)-acetamide] the melting point was 220 to 221 °C and the inhibition in vivo at 50 mg/kg [2] was < 20%.

With `Cc1cc2c(cc1O)C(C)(C)CC1(CC(C)(C)c3cc(OCCCn4nc(CO)cc4C)c(C)cc3O1)O2` (racemic) [Example 17, (±)-6′-Hydroxy-6-[3-(3-hydroxymethyl-5-methyl-1H-pyrazol-1-yl)propoxy]-4,4,4′,4′,7,7′-hexamethyl-2,2′-spirobichroman] the melting point was 217 to 219 °C and the inhibition in vivo at 50 mg/kg [2] was 20 to 40%.

Compound `Cc1cc(CO)n(CCCOc2cc3c(cc2C)OC2(CC(C)(C)c4cc(O)c(C)cc4O2)CC3(C)C)n1` (racemic) [Example 18, (±)-6′-Hydroxy-6-[3-(5-hydroxymethyl-3-methyl-1H-pyrazol-1-yl)propoxy]-4,4,4′,4′,7,7′-hexamethyl-2,2′-spirobichroman] has a melting point of 208 to 210 °C, an inhibition at 10 µM [1] of 41% and an inhibition at 10 µM [3] of 5%.

For `Cc1cc2c(cc1O)C(C)(C)CC1(CC(C)(C)c3cc(OCC(C)(C)O)c(C)cc3O1)O2` (racemic) [Example 19, (±)-6′-Hydroxy-6-(2-hydroxy-2-methylpropoxy)-4,4,4′,4′,7,7′-hexamethyl-2,2′-spirobichroman], the inhibition in vivo at 50 mg/kg [2] was < 20%.

With `COc1cc2c(cc1C)OC1(CC2(C)C)CC(C)(C)c2cc(OCC(=O)O)c(C)cc2O1` (racemic) [Example 20, (±)-(6′-Methoxy-4,4,4′,4′,7,7′-hexamethyl-2,2′-spirobichroman-6-yloxy)-acetic acid] the melting point was 195 to 197 °C and the inhibition in vivo at 50 mg/kg [2] was < 20%.

With `C=CCc1c(O)c(C)cc2c1C(C)(C)CC1(CC(C)(C)c3cc(O)c(C)cc3O1)O2` (racemic) [Example 22, (±)-6,6′-Dihydroxy-5-allyl-4,4,4′,4′,7,7′-hexamethyl-2,2′-spirobichroman] the melting point was 102 to 104 °C and the inhibition in vivo at 50 mg/kg [2] was < 20%.

With `C=CCc1c(O)c(C)cc2c1C(C)(C)CC1(CC(C)(C)c3c(cc(C)c(O)c3CC=C)O1)O2` (racemic) [Example 23, (±)-6,6′-Dihydroxy-5,5′-diallyl-4,4,4′,4′,7,7′-hexamethyl-2,2′-spirobichroman] the melting point was 95 to 97 °C and the inhibition in vivo at 50 mg/kg [2] was < 20%.

Work on `Cc1cc2c(cc1O)C(C)(C)CC1(CC(C)(C)c3cc(O)c(C)cc3O1)O2` (racemic) [Example 24, (±)-6,6′-Dihydroxy-4,4,4′,4′,7,7′-hexamethyl-2,2′-spirobichroman] yielded an inhibition at 10 µM [1] of 65%, an inhibition in vivo at 50 mg/kg [2] of 20 to 40% and an inhibition at 10 µM [3] of 51%.

In the case of `Cc1cc2c(cc1O)C(C)(C)CC1(CC(C)(C)c3cc(OCC(=O)OCc4ccccc4)c(C)cc3O1)O2` (racemic) [Example 25, (±)-(6′-Hydroxy-4,4,4′,4′,7,7′-hexamethyl-2,2′-spirobichroman-6-yloxy)-acetic acid Benzyl Ester], the melting point is reported as 60 to 65 °C.

For `Cc1cc2c(cc1O)C(C)(C)CC1(CC(C)(C)c3cc(OCC(=O)O[C@@H]4C[C@H](C)CC[C@H]4C(C)(C)c4ccccc4)c(C)cc3O1)O2` (mixture of isomers) [Example 26, (±)-(6′-Hydroxy-4,4,4′,4′,7,7′-hexamethyl-2,2′-spirobichroman-6-yloxy)-acetic acid 5(R)-Methyl-2(S)-(1-methyl-1-phenylethyl)-1(R)-cyclohexyl Ester], the melting point was 88 to 93 °C.

In the case of `Cc1cc2c(cc1O)C(C)(C)CC1(CC(C)(C)c3cc(O)c(C)cc3O1)O2` (single isomer, unassigned) [Example 28], the inhibition in vivo at 50 mg/kg [2] is reported as 20 to 40%.

For `Cc1cc2c(cc1O)C(C)(C)CC1(CC(C)(C)c3cc(OC(C)(C)C(=O)O)c(C)cc3O1)O2` (stereo in doubt) [Example 10, (−)-(S)-(6′-Hydroxy-4,4,4′,4′,7,7′-hexamethyl-2,2′-spirobichroman-6-yloxy)-dimethylacetic acid], the inhibition in vivo at 50 mg/kg [2] was < 20%.

`C=CCOc1cc2c(cc1C)OC1(CC2(C)C)CC(C)(C)c2cc(OCC=C)c(C)cc2O1` [Example 16, (±)-6,6′-Bisallyloxy-4,4,4′,4′,7,7′-hexamethyl-2,2′-spirobichroman] showed a melting point of 98 to 100 °C.

In the case of `Cc1cc2c(cc1O)C(C)(C)CC1(CC(C)(C)c3cc(O)c(C)cc3O1)O2` [Example 27, (−)-(S)-6,6′-dihydroxy-4,4,4′,4′,7,7′-hexamethyl-2,2′-spirobichroman], the melting point is reported as 165 to 166 °C and the inhibition in vivo at 50 mg/kg [2] is reported as > 40%.
